In patent US6372183B1 (priority 1991, dated 2002):
Like-named read-outs stand apart in the source and are kept apart here.

Tests used:
[1] = system: nicotinic acetylcholine receptors (NAChR)
Method: The cells were plated and loaded with the fluorescent dye Fluo-3 and the assays were carried out substantially as described in the modified method of Example 3A except that the nicotinic receptors of the cells were activated.

[2] = system: voltage-dependent calcium channels
Method: (§1) SHSY5Y cells, induced for six days with 10 μM retinoic acid (Sigma), and IMR32 cells, induced for ten days with 1 mM dibutyryl cAMP (dbcAMP) and 2.5 μM bromodeoxyuridine (BrdU) (both from Boehringer-Mannheim, Indianapolis, IN) were treated with various calcium channel interactive drugs before kCl depolarization and measurement of fluorescence.

[3] = system: voltage-dependent calcium channels; remark: listed apart in the source
Method: as §1

[4] = system: muscarinic acetylcholine receptors (MAChRs)
[5] = target: human neuronal calcium channel α1D, α2 and β subunits (Homo sapiens, UniProt Q01668); settings: 13old cells; 50 mM KCl
Sequence of human neuronal calcium channel α1D, α2 and β subunits (Q01668 whole entry): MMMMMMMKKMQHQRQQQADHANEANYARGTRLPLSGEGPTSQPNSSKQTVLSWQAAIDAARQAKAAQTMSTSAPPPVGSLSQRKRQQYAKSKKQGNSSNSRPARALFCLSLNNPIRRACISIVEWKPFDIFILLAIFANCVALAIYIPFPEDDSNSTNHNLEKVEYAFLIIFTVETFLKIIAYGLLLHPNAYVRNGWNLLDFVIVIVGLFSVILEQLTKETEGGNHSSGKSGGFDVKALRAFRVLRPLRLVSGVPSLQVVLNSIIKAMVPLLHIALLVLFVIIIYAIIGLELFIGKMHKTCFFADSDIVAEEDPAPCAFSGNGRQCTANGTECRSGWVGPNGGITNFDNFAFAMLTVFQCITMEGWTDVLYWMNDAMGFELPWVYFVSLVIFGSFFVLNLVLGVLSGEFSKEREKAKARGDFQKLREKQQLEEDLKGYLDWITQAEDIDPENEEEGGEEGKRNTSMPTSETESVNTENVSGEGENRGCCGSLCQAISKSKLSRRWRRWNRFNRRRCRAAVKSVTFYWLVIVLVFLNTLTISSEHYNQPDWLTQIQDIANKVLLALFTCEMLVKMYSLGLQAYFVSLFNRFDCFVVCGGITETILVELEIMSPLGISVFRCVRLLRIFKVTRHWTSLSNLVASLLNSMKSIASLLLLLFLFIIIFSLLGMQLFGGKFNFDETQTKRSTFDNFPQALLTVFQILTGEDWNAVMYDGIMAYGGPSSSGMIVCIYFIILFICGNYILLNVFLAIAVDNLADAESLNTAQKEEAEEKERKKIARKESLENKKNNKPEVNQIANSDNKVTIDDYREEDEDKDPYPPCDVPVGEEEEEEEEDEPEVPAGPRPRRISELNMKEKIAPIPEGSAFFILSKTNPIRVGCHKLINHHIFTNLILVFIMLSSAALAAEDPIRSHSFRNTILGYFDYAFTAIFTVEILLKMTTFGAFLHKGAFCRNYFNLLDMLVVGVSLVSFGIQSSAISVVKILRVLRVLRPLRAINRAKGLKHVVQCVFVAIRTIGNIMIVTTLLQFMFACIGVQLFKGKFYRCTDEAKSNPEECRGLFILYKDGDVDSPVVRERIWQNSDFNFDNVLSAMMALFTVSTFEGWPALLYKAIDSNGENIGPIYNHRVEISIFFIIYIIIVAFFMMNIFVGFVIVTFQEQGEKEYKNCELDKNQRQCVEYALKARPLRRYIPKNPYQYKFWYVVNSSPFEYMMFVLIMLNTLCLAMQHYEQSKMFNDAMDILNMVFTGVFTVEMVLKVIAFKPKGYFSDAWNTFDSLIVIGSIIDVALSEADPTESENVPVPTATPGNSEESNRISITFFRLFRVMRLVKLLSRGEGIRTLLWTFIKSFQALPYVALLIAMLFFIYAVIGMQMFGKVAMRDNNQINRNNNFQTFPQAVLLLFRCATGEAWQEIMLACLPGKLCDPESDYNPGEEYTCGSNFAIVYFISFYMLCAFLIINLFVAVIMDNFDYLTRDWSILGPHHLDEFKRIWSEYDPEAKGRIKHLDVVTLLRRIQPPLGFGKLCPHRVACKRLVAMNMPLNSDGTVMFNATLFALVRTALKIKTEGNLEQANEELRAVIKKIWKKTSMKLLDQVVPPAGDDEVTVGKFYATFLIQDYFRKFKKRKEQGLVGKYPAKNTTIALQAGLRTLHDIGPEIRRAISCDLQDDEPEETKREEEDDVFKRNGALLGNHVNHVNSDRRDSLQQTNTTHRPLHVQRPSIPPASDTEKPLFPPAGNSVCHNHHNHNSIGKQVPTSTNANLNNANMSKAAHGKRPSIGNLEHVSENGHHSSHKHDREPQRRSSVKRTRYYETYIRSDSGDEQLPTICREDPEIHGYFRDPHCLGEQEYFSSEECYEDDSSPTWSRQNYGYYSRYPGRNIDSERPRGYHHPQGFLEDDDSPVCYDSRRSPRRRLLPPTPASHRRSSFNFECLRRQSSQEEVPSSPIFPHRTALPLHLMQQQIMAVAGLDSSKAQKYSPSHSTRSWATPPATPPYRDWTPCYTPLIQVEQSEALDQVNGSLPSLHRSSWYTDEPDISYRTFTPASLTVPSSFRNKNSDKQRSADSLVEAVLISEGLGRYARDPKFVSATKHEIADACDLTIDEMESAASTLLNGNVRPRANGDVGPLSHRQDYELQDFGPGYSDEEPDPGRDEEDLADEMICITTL
Method: The assays were conducted using the fully automated version of the assay, as described for analysis of calcium channels in positive control IMR32 and SHSY5Y cells. Fluorescence was measured prior to addition of KCl to the cells to record pre-reagent fluorescence, i.e., noise, fluorescence. Signal fluorescence is the maximal fluorescence recorded after addition of KCl to the cells.
The automated assays were performed as described for analysis of calcium channel activity of IMR32 and SHSY5Y cells. For each dose-dependence assay, different wells of the microtiter plate received different concentrations of the agonist or antagonist, the background fluorescence was measured, and. […] Repeated fluorescence measurements were made before and after KCl addition and the values were recorded. A total of five fluorescence readings were taken before KCl addition. […] The plate was then automatically repositioned at the fluorescence measuring position (a delay of two seconds was measured between reagent addition and the first fluorescence measurement after reagent addition) and 125 fluorescence measurements were taken and values were recorded. […]
Dose-response curves were generated from the fluorescence data. In constructing these curves, the fluorescence value recorded in the presence of each concentration of compound was plotted as the percent maximum fluorescence vs. concentration. […]

CN1CCCC1c1cccnc1 (stereo not shown) [nicotine]
Fluorescence S/N ratio ([1]; IMR32 cells, 200 μM agonist alone, Equation 2): 2.3

KCl [KC1]
Fluorescence Signal to Noise Ratio ([2]; SHSY5Y (retinoic acid induced), 50 mM KCl alone): 1.9
Fluorescence Signal to Noise Ratio ([3]; IMR32 (dbcAMP/BrdU induced), 50 mM KCl alone): 2.3

CNC1(C)C2CCC(C2)C1(C)C (stereo not shown) [mecamylamine]
Fluorescence S/N ratio [1]: 1.0

D-tubocurarine [DTC]
Fluorescence S/N ratio [1]: 1.0

CN1[C@@H]2C[C@@H](OC(=O)[C@H](CO)c3ccccc3)C[C@H]1[C@@H]1O[C@@H]12 [scopolamine]
Fluorescence S/N ratio [4]: 1.0

C[N+](C)(C)CCCCCC[N+](C)(C)C [hexamethonium]
Fluorescence S/N ratio [1]: 1.0

omega-CgTx
Inhibition of the KCl-induced fluorescence increase (in words) [5]: did not completely inhibit

cadmium
Fluorescence Signal to Noise Ratio ([2]; SHSY5Y, 50 mM KCl and 200 μM compound): 1.0
Fluorescence Signal to Noise Ratio ([3]; IMR32, 50 mM KCl and 200 μM compound): 1.0

Bay K 8644 [BayK 8644]
Fluorescence Signal to Noise Ratio ([2]; SHSY5Y, 50 mM KCl and 1 μM compound): 2.7
Fluorescence Signal to Noise Ratio ([3]; IMR32, 50 mM KCl and 1 μM compound): 2.5
Concentration at which potentiation of the fluorescence response to KCl was maximal [5]: 100 nM
